The species named for series [1] is Homo sapiens. As to the kind of experiment: Hepatic clearance in human. The conditions noted are these: in vivo.
A short description of series [2]: clinical. The settings on record: human, in vivo.

Regarding `COc1ccc([C@]2(C#N)CC[C@@H](C(=O)O)CC2)cc1OC1CCCC1` [CILOMILAST], the CL in series [1] was 0.5 mL/min/kg. In addition, in series [2], the CL renal was 0.005 mL/min/kg.

For the molecule `CN(C)CCCC1(c2ccc(F)cc2)OCc2cc(C#N)ccc21` (stereo not given) [CITALOPRAM], the CL in series [1] amounted to 3.8 mL/min/kg. The molecule also had a CL renal in series [2] of 0.5 mL/min/kg.

Molecule `CC[C@H]1OC(=O)[C@H](C)[C@@H](O[C@H]2C[C@@](C)(OC)[C@@H](O)[C@H](C)O2)[C@H](C)[C@@H](O[C@@H]2O[C@H](C)C[C@H](N(C)C)[C@H]2O)[C@](C)(OC)C[C@@H](C)C(=O)[C@H](C)[C@@H](O)[C@]1(C)O` [CLARITHROMYCIN] displayed a CL in series [1] of 4.7 mL/min/kg. In series [2], this molecule yielded a CL renal of 2.6 mL/min/kg.

In turn, `CCC[C@@H]1C[C@@H](C(=O)N[C@@H]([C@H]2O[C@H](SC)[C@H](O)[C@@H](O)[C@H]2O)[C@H](C)Cl)N(C)C1` [CLINDAMYCIN] registered a CL in series [1] of 3.9 mL/min/kg. In addition, in series [2], the CL renal is 0.6 mL/min/kg.

Consider `O=C1CN=C(c2ccccc2Cl)c2cc([N+](=O)[O-])ccc2N1` [CLONAZEPAM], for which the CL in series [1] was 0.9 mL/min/kg. Further, the CL renal in series [2] is 0.0088 mL/min/kg.

In the case of `CN1C(=O)CC[C@H]1c1cccnc1` [COTININE], in series [1], the CL worked out at 0.8 mL/min/kg. In series [2], this molecule yielded a CL renal of 0.1 mL/min/kg.

Turning to `C[C@@H]1C[C@H]2[C@@H]3CCC4=CC(=O)C=C[C@]4(C)[C@@]3(F)[C@@H](O)C[C@]2(C)[C@@]1(O)C(=O)CO` [DEXAMETHASONE], the CL in series [1] turned out to be 3.2 mL/min/kg. The same molecule yielded a CL renal in series [2] of 0.1 mL/min/kg.

With `CCCCCN(CCCOC)C(=O)[C@@H](CCC(=O)O)NC(=O)c1ccc(Cl)c(Cl)c1` [DEXLOXIGLUMIDE], the CL in series [1] came to 3.3 mL/min/kg. For the same molecule, in series [2], the CL renal is 0.4 mL/min/kg.

Take `O=c1[nH]c2ccccc2n1CCCN1CCC(n2c(=O)[nH]c3cc(Cl)ccc32)CC1` [DOMPERIDONE]: the CL in series [1] was determined as 9.5 mL/min/kg. The molecule also came in with a CL renal in series [2] of 0.038 mL/min/kg.

Molecule `CCN1CC(CCN2CCOCC2)C(c2ccccc2)(c2ccccc2)C1=O` (stereo not given) [DOXAPRAM] gave a CL in series [1] of 5 mL/min/kg. The CL renal in series [2] turned out to be 0.3 mL/min/kg.

In series [1], `C[C@H]1c2cccc(O)c2C(=O)C2=C(O)[C@]3(O)C(=O)C(C(N)=O)=C(O)[C@@H](N(C)C)[C@@H]3[C@@H](O)[C@@H]21.O` [DOXYCYCLINE] showed a CL of 0.3 mL/min/kg. This molecule displayed a CL renal in series [2] of 0.2 mL/min/kg.

`Cn1c(=O)c2c(ncn2CC(O)CO)n(C)c1=O` (stereo not given) [DYPHYLLINE] yielded a CL in series [1] of 0.8 mL/min/kg. In series [2], this molecule yielded a CL renal of 4 mL/min/kg.

The molecule `OC(Cn1cncn1)(Cn1cncn1)c1ccc(F)cc1F` [FLUCONAZOLE] registered a CL in series [1] of 0.1 mL/min/kg. The molecule also registered a CL renal in series [2] of 0.2 mL/min/kg.

In turn, `CCOC(=O)c1ncn2c1CN(C)C(=O)c1cc(F)ccc1-2` [FLUMAZENIL] returned a CL in series [1] of 16 mL/min/kg. This molecule also gave a CL renal in series [2] of 0.032 mL/min/kg.

As for `CCOC(=O)Nc1ccc(NCc2ccc(F)cc2)nc1N` [FLUPIRTINE], the CL in series [1] was 1.3 mL/min/kg. Besides, the CL renal in series [2] was 0.3 mL/min/kg.

`C[C@H]([C@](O)(Cn1cncn1)c1ccc(F)cc1F)S(C)(=O)=O` [GENACONAZOLE] returned a CL in series [1] of 0.038 mL/min/kg. Moreover, the CL renal in series [2] came to 0.2 mL/min/kg.

In series [1], `C[C@@H]1C(=O)O[C@H]2C[C@@]34[C@H]5C[C@@H](C(C)(C)C)[C@]36[C@@H](OC(=O)[C@@H]6O)O[C@@]4(C(=O)O5)[C@]21O` [GINKGOLIDE A] showed a CL of 0.7 mL/min/kg. For the same molecule, the CL renal in series [2] came out at 1.7 mL/min/kg.

`C[C@@H]1C(=O)O[C@H]2[C@H](O)[C@@]34[C@H]5C[C@@H](C(C)(C)C)[C@]36[C@@H](OC(=O)[C@@H]6O)O[C@@]4(C(=O)O5)[C@@]12O` [GINKOLIDE B]: the CL in series [1] was determined as 1.3 mL/min/kg. The molecule also returned a CL renal in series [2] of 1 mL/min/kg.

`CCC1=C(C)CN(C(=O)NCCc2ccc(S(=O)(=O)NC(=O)N[C@H]3CC[C@H](C)CC3)cc2)C1=O` [GLIMEPIRIDE] came in with a CL in series [1] of 0.5 mL/min/kg. In series [2], the CL renal was found to be 0.002 mL/min/kg.

For `NS(=O)(=O)c1cc2c(cc1C(F)(F)F)NCNS2(=O)=O` [HYDROFLUMETHIAZIDE], the CL in series [1] amounted to 0.7 mL/min/kg. The molecule further had a CL renal in series [2] of 9 mL/min/kg.

In series [1], `NC(=O)NO` [HYDROXYUREA] yielded a CL of 1 mL/min/kg. Further, the CL renal in series [2] came to 0.5 mL/min/kg.

Turning to `O=P1(NCCCl)OCCCN1CCCl` (stereo not given) [IFOSFAMIDE], in series [1], the CL was determined as 0.5 mL/min/kg. The same molecule showed a CL renal in series [2] of 0.6 mL/min/kg.

Consider `Cc1cc(NC(=O)C2=C(O)c3ccccc3S(=O)(=O)N2C)no1` [ISOXICAM], for which the CL in series [1] is 0.1 mL/min/kg. In series [2], the CL renal was found to be 0.0014 mL/min/kg.

With `COc1ccc2c(c1)N(C[C@H](C)CN(C)C)c1ccccc1S2` [LEVOMEPROMAZINE], in series [1], the CL is 5.9 mL/min/kg. This molecule also returned a CL renal in series [2] of 4 mL/min/kg.

As for `COC(=O)Nc1nc2ccc(C(=O)c3ccccc3)cc2[nH]1` [MEBENDAZOLE], the CL in series [1] was determined as 14.8 mL/min/kg. The same molecule came in with a CL renal in series [2] of 0.2 mL/min/kg.

The molecule `COCCc1ccc(OCC(O)CNC(C)C)cc1` (stereo not given) [METOPROLOL] came in with a CL in series [1] of 12.4 mL/min/kg. In series [2], this molecule had a CL renal of 0.7 mL/min/kg.

Regarding `CN1CCN2c3ncccc3Cc3ccccc3C2C1` (stereo not given) [MIRTAZAPINE], the CL in series [1] came to 7.7 mL/min/kg. In series [2], this molecule came in with a CL renal of 0.3 mL/min/kg.

`O=C(NCCN1CCOCC1)c1ccc(Cl)cc1` [MOCLOBEMIDE] yielded a CL in series [1] of 10 mL/min/kg. The CL renal in series [2] came to 0.1 mL/min/kg.

Molecule `CC(C)(O)c1ccccc1CC[C@@H](SCC1(CC(=O)O)CC1)c1cccc(/C=C/c2ccc3ccc(Cl)cc3n2)c1` [MONTELUKAST] gave a CL in series [1] of 0.7 mL/min/kg. In addition, the CL renal in series [2] stood at 0.0014 mL/min/kg.

As for `CN(C)C(=O)Oc1cccc([N+](C)(C)C)c1.[Br-]` [NEOSTIGMINE BROMIDE], the CL in series [1] amounted to 3.8 mL/min/kg. The same molecule gave a CL renal in series [2] of 5.4 mL/min/kg.

`Cc1ccnc2c1NC(=O)c1cccnc1N2C1CC1` [NEVIRAPINE]: in series [1], the CL turned out to be 0.3 mL/min/kg. The same molecule gave a CL renal in series [2] of 0.0069 mL/min/kg.

For the molecule `O=C1CN=C(c2ccccc2)c2cc([N+](=O)[O-])ccc2N1` [NITRAZEPAM], the CL in series [1] amounted to 0.9 mL/min/kg. Besides, in series [2], the CL renal was found to be 0.0086 mL/min/kg.

Consider `Cc1nccn1CC1CCc2c(c3ccccc3n2C)C1=O` (stereo not given) [ONDANSETRON], for which the CL in series [1] was found to be 5.5 mL/min/kg. This molecule also came in with a CL renal in series [2] of 0.3 mL/min/kg.

With `NC(=O)CN1CC(O)CC1=O` (stereo not given) [OXIRACETAM], the CL in series [1] was found to be 0.1 mL/min/kg. Also, the CL renal in series [2] stood at 1.7 mL/min/kg.

Regarding `c1ccc(C2(N3CCCCC3)CCCCC2)cc1` [PHENCYCLIDINE], in series [1], the CL stood at 4.3 mL/min/kg. The molecule also showed a CL renal in series [2] of 0.8 mL/min/kg.

`CCC1(c2ccccc2)C(=O)NC(=O)NC1=O` [PHENOBARBITAL]: the CL in series [1] is 0.0479 mL/min/kg. Besides, the CL renal in series [2] was found to be 0.0151 mL/min/kg.

Regarding `CC1CCCC(C)N1CCCC(O)(c1ccccc1)c1ccccn1` (stereo not given) [PIRMENOL], the CL in series [1] worked out at 1.1 mL/min/kg. Besides, the CL renal in series [2] was 0.7 mL/min/kg.

`OC(CCN1CCCC1)(c1ccccc1)C1CCCCC1` (stereo not given) [PROCYCLIDINE] registered a CL in series [1] of 0.8 mL/min/kg. The CL renal in series [2] came to 0.043 mL/min/kg.

`CCN1CCC[C@H]1CNC(=O)c1c(OC)ccc(Br)c1OC` [REMOXIPRIDE]: the CL in series [1] stood at 1.3 mL/min/kg. Also, the CL renal in series [2] worked out at 0.4 mL/min/kg.

The molecule `CCOc1cc(CC(=O)N[C@@H](CC(C)C)c2ccccc2N2CCCCC2)ccc1C(=O)O` [REPAGLINIDE] displayed a CL in series [1] of 7.7 mL/min/kg. The molecule also displayed a CL renal in series [2] of 0.1 mL/min/kg.

For the origin of these results see ChEMBL document CHEMBL1156824, “Physicochemical space for optimum oral bioavailability: contribution of human intestinal absorption and first-pass elimination” (J Med Chem, 2010).
